Data taken from patent US6291507A, “Chemical compounds” (Astrazeneca UK Limited, priority 1998, dated 2001).

Biological target: T1, hMCP-1 receptor (MCP-1 receptor B, CCR2B) (Homo sapiens, UniProt P41597)
T1 construct: expressed in transfected cells; host or cells: CHO-K1 (clone 7, CHO-CCR2B), membrane fragments
T1 sequence (P41597 1-360 isoform P41597-2): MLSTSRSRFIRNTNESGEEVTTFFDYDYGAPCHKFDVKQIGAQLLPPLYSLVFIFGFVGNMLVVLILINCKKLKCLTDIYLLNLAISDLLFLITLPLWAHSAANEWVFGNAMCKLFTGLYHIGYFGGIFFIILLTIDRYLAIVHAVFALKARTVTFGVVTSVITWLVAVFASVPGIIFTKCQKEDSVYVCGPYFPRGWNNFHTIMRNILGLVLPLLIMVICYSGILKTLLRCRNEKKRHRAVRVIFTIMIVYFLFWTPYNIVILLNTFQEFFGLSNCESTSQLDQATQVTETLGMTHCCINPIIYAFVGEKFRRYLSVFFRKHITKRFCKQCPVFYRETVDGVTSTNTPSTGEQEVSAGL
Experiment: hMCP-1 receptor-binding assay
Conditions: competition with 100 pM 125I-labelled MCP-1; CHO-CCR2B cell membranes; 0.1-200 μM, eight point dose-response curves in duplicate
From the text: a) hMCP-1 Receptor-binding Assay
The MCP-1 receptor B (CCR2B) cDNA was cloned by PCR from THP-1 cell RNA using suitable oligonucleotide primers based on the published MCP-1 receptor sequences (Charo et al., 1994, Proc. Natl. Acad. Sci. USA, 91, 2752). The resulting PCR products were cloned into vector PCR-II™ (InVitrogen, San Diego, Calif.). Error free CCR2B cDNA was subcloned as a Hind III-Not I fragment into the eukaryotic expression vector pCDNA3 (InVitrogen) to generate pCDNA3/CC-CKR2A and pCDNA3/CCR2B respectively.
Linearised pCDNA3/CCR2B DNA was transfected into CHO-KI cells by calcium phosphate precipitation (Wigler et al., 1979, Cell, 16, 777). Transfected cells were selected by the addition of Geneticin Sulphate (G418, Gibco BRL) at 1 mg/ml, 24 hours after the cells had been transfected. Preparation of RNA and Northern blotting were carried out as described previously (Needham et al., 1995, Prot. Express. Purific., 6, 134). CHO-K1 clone 7 (CHO-CCR2B) was identified as the highest MCP-1 receptor B expressor.
CHO-CCR2B cells were grown in DMEM supplemented with 10% foetal calf serum, 2 mM glutamine, lx Non-Essential Amino Acids, 1× Hypoxanthine and Thymidine Supplement and Penicillin-Streptomycin (at 50 μg streptomycin/ml; Gibco BRL). […]

- IC50: 400 nM
SMILES: Cc1c2c(n(Cc3ccc(Cl)c(Cl)c3)c1C(=O)O)CCCC2=O [Example 4a, 1-(3,4-Dichlorobenzyl)-3-methyl-4-oxo-4,5,6,7-tetrahydroindole-2-carboxylicAcid]
